# Assay results: PMC3961306, “Comparison of the Cancer Gene Targeting and Biochemical Selectivities of All Targeted Kinase Inhibitors Approved for Clinical Use” (PLoS ONE, 2014)
# How the values were obtained:
# Experiment in all cases: Kinase profiling in a biochemical assay panel (mobility shift assays and ELISA), %-inhibition at 1 μM; selectivity entropy
# [1] = biological target: panel of more than 300 wild-type and mutant kinases (313 kinase panel) (Homo sapiens, UniProt P68400); settings: kinase CK2α1/β; 1 μM compound
# [2] = biological target: panel of more than 300 wild-type and mutant kinases (313 kinase panel) (Homo sapiens, UniProt Q13177)
# [3] = biological target: panel of more than 300 wild-type and mutant kinases (313 kinase panel) (Homo sapiens, UniProt Q9UK32); settings: kinase RSK4; 1 μM
# [4] = biological target: panel of more than 300 wild-type and mutant kinases (313 kinase panel) (Homo sapiens, UniProt Q13554)
# [5] = biological target: T1, panel of more than 300 wild-type and mutant kinases (313 kinase panel) (Homo sapiens, UniProt P29320); settings: kinase EPHA3; compound at 1 μM
# T1 sequence (P29320 21-983): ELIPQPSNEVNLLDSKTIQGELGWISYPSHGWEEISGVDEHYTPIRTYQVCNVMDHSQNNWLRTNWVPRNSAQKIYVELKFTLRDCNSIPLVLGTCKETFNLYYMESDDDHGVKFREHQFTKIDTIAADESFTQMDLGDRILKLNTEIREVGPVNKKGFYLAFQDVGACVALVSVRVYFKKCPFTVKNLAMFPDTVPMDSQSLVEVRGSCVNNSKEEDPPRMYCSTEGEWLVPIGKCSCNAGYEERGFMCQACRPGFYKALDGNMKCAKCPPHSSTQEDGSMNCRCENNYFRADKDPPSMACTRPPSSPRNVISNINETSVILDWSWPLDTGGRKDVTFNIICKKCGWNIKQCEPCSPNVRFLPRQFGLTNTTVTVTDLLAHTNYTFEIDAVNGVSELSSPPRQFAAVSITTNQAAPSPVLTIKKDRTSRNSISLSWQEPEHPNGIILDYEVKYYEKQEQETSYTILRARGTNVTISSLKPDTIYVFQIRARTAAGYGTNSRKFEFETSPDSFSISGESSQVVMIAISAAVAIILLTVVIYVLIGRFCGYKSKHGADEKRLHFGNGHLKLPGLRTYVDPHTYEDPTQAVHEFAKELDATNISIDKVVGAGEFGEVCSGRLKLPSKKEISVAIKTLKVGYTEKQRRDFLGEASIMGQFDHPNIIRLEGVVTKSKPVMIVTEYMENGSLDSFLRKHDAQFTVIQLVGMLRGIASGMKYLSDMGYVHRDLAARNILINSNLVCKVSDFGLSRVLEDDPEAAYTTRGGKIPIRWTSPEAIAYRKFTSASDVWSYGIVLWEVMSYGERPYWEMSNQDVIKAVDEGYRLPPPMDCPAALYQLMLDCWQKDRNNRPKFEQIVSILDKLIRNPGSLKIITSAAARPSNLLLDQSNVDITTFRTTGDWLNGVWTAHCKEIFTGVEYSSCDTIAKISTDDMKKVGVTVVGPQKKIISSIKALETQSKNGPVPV
# [6] = biological target: panel of more than 300 wild-type and mutant kinases (313 kinase panel) (Homo sapiens, UniProt P30291)
# [7] = biological target: T2, panel of more than 300 wild-type and mutant kinases (313 kinase panel) (Homo sapiens, UniProt P51813); settings: kinase BMX; 1 μM compound
# T2 sequence (P51813 1-675): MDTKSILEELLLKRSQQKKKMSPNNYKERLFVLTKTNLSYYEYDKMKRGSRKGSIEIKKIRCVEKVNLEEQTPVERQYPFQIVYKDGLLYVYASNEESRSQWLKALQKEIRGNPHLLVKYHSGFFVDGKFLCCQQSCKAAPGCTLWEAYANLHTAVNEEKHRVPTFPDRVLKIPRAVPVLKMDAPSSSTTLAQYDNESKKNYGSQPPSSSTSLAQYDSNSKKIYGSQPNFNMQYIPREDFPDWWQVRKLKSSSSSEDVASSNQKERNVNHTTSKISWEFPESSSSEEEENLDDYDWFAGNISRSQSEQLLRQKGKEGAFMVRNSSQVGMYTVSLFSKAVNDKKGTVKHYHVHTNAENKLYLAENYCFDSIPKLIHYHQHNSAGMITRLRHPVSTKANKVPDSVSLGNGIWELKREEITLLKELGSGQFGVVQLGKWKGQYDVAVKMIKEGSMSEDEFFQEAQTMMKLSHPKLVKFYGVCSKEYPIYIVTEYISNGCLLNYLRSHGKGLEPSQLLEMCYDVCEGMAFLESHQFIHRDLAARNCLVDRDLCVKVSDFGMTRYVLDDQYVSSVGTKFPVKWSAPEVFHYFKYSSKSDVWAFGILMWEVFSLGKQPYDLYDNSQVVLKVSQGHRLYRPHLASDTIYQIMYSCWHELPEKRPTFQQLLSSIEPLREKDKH
# panel of more than 300 wild-type and mutant kinases (313 kinase panel) (Homo sapiens, UniProt Q9UK32), sequence (Q9UK32 whole entry, change not shown): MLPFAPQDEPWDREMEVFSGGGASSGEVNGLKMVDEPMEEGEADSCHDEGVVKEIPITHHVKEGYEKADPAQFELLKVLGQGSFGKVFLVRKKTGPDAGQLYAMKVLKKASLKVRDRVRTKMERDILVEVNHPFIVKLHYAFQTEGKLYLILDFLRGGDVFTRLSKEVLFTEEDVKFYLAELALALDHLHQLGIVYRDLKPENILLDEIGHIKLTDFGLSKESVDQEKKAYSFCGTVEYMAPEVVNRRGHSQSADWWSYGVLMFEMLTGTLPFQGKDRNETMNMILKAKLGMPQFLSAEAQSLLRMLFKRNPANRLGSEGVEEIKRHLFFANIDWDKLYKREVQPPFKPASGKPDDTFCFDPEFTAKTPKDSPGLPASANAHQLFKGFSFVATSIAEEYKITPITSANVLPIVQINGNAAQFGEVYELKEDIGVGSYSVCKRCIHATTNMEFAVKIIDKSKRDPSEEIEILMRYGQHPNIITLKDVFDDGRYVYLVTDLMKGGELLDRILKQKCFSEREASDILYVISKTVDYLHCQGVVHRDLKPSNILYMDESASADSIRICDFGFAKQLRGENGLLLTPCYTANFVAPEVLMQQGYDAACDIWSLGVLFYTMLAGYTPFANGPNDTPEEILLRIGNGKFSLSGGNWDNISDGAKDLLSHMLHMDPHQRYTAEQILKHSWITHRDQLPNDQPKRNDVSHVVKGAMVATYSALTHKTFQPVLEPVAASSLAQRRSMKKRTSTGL
# panel of more than 300 wild-type and mutant kinases (313 kinase panel) (Homo sapiens, UniProt P30291), sequence (P30291 whole entry, change not shown): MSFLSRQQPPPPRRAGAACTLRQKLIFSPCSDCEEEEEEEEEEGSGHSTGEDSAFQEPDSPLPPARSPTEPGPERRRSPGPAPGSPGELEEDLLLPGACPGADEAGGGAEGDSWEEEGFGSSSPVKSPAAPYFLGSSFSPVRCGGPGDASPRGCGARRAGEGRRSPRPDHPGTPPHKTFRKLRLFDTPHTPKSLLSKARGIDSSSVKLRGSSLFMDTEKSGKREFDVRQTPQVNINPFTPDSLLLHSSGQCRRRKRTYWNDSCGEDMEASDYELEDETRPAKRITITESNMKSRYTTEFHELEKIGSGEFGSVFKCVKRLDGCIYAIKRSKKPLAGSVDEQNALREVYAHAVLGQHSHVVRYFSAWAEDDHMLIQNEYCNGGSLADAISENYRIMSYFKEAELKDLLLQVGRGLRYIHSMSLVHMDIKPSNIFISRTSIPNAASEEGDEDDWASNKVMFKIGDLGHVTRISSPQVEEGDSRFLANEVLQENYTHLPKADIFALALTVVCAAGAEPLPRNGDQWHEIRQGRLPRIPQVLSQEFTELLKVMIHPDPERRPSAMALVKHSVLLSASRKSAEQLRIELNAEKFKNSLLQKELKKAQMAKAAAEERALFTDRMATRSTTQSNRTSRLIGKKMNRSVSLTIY
# panel of more than 300 wild-type and mutant kinases (313 kinase panel) (Homo sapiens, UniProt Q13554), sequence (Q13554 whole entry, change not shown): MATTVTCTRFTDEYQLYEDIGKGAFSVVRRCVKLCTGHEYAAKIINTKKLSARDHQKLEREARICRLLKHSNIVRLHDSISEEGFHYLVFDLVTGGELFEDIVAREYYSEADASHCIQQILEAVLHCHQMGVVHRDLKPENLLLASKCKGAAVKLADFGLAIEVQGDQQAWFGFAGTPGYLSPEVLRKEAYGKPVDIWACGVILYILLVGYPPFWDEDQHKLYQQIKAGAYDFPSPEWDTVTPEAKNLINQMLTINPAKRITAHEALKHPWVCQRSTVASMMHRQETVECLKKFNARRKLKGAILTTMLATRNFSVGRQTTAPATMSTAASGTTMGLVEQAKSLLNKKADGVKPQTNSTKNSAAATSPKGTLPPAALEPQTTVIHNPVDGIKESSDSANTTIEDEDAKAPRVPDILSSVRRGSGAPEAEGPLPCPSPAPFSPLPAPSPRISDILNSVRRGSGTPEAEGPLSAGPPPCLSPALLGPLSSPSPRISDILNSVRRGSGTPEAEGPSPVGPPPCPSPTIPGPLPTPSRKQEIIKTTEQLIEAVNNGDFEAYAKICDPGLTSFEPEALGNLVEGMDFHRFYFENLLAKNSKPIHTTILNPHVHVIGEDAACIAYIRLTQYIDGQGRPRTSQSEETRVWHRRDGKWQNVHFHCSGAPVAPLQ
SMILES,"%-inhibition, CK2α1/β [1] [%]",%-inhibition of PAK2 ([2]; 1 µM) [%],%-inhibition of RSK4 [3] [%],"%-inhibition, CaMK2β ([4]; 1 µM) [%]",%-inhibition of EPHA3 [5] [%],%-inhibition of WEE1 ([6]; 1 µM) [%],"%-inhibition of PAK2 ([2]; kinase PAK2, 1 μM) [%]","%-inhibition, CaMK2β ([4]; kinase CaMK2β, 1 μM compound) [%]","%-inhibition, BMX [7] [%]","%-inhibition of WEE1 ([6]; kinase WEE1, compound at 1 μM) [%]"
Cc1cn(-c2cc(NC(=O)c3ccc(C)c(Nc4nccc(-c5cccnc5)n4)c3)cc(C(F)(F)F)c2)cn1 [nilotinib],3.23,-40,11,-21,87,3.74,–,–,–,–
Cc1ccc(Nc2nccc(N(C)c3ccc4c(C)n(C)nc4c3)n2)cc1S(N)(=O)=O [pazopanib],-3,–,10,–,10,–,3.51,-2.29,24,1
Cc1ccc(C(=O)Nc2ccc(CN3CCN(C)CC3)c(C(F)(F)F)c2)cc1C#Cc1cnc2cccnn12 [ponatinib],–,–,13,–,102,–,–,–,–,2.14
CNC(=O)c1cc(Oc2ccc(NC(=O)Nc3ccc(Cl)c(C(F)(F)F)c3)c(F)c2)ccn1 [regorafenib],-9,–,-1.19,–,80,–,-1.3,-9,-1.77,4.42
N#CC[C@H](C1CCCC1)n1cc(-c2ncnc3[nH]ccc23)cn1 [ruxolitinib],-6,–,3.16,22,2,–,3.37,–,6.6,-1.32
CCN(CC)CCNC(=O)c1c(C)[nH]c(/C=C2\C(=O)Nc3ccc(F)cc32)c1C [sunitinib],-21,–,–,–,–,–,–,–,–,–
CO[C@H]1C[C@@H]2CC[C@@H](C)[C@@](O)(O2)C(=O)C(=O)N2CCCC[C@H]2C(=O)O[C@H]([C@H](C)C[C@@H]2CC[C@@H](OC(=O)C(C)(CO)CO)[C@H](OC)C2)CC(=O)[C@H](C)/C=C(\C)[C@@H](O)[C@@H](OC)C(=O)[C@H](C)C[C@H](C)/C=C/C=C/C=C/1C [temsirolimus],-6.65,–,-6,–,-21,–,-1.81,-9,-7,4.25
CC(=O)Nc1cccc(-n2c(=O)n(C3CC3)c(=O)c3c(Nc4ccc(I)cc4F)n(C)c(=O)c(C)c32)c1 [trametinib],-3.4,–,0.208,–,-6,–,-9,0.738,-3.22,9
COc1cc2c(Nc3ccc(Br)cc3F)ncnc2cc1OCC1CCN(C)CC1 [vandetanib],-7,–,5.43,–,57,–,-2,-4.23,18,1.73
CCCS(=O)(=O)Nc1ccc(F)c(C(=O)c2c[nH]c3ncc(-c4ccc(Cl)cc4)cc23)c1F [vemurafenib],-5.39,–,-3,–,-7.52,–,13,-6.64,24,-1.64
